# “And” between values parts separate entries of the source, which are not always exact repeats. Equal entries are not always repeated. Inconclusive results are not listed.
# Tested on: BDF1 mice, colon carcinoma 38 sc, T/C %
# Test: NCI In Vivo Anticancer Drug Screen. Data for tumor model Colon Carcinoma 38 (subcutaneous) in B6D2F1 (BDF1) mice
# Settings: endpoint: median tumor weight (est.), higher = larger tumour
# Procedure: The antitumor activity of compounds was measured in mice bearing transplantable tumors. Survival or tumor size were measured and the results are expressed as the measurement made in the treated group (T) divided by the measurement made in the vehicle treated control group (C). The tumor model used in this assay is Colon Carcinoma 38 (subcutaneous) in B6D2F1 (BDF1) mice
# [1] = dose: 12.5 mg/kg/injection, schedule: Q07DX002 (ip), vehicle: Klucel (hydroxypropylcellulose) (HPC)
# [2] = dose: 25.0 mg/kg/injection, schedule: Q07DX003 (ip), vehicle: Klucel (hydroxypropylcellulose) (HPC)
# [3] = dose: 200.0 mg/kg/injection, schedule: Q07DX003 (ip), vehicle: Klucel (hydroxypropylcellulose) (HPC)
# [4] = dose: 25.0 mg/kg/injection, schedule: Q07DX002 (ip), vehicle: Klucel (hydroxypropylcellulose) (HPC)
# [5] = dose: 100.0 mg/kg/injection, schedule: Q07DX002 (ip), vehicle: Klucel (hydroxypropylcellulose) (HPC)
# [6] = dose: 200.0 mg/kg/injection, schedule: Q07DX002 (ip), vehicle: Klucel (hydroxypropylcellulose) (HPC)
# [7] = dose: 50.0 mg/kg/injection, schedule: Q07DX002 (ip), vehicle: Klucel (hydroxypropylcellulose) (HPC)
# [8] = dose: 400.0 mg/kg/injection, schedule: Q07DX002 (ip), vehicle: Klucel (hydroxypropylcellulose) (HPC)
# [9] = dose: 25.0 mg/kg/injection, schedule: Q07DX002 (ip), vehicle: saline
# [10] = dose: 50.0 mg/kg/injection, schedule: Q07DX002 (ip), vehicle: saline
# [11] = dose: 400.0 mg/kg/injection, schedule: Q07DX002 (ip), vehicle: saline
# [12] = dose: 25.0 mg/kg/injection, schedule: Q07DX002 (ip), vehicle: saline with Tween-80
smiles,measurement,setting,value
C[C@H]1C/C=C/[C@H]2[C@@H]3O[C@]3(C)[C@@H](C)[C@H]3[C@H](Cc4ccccc4)NC(=O)[C@]32OC(=O)O/C=C/[C@@](C)(O)C1=O,T/C,"dose: 6.25 mg/kg/injection, schedule: Q07DX002 (ip), vehicle: Klucel (hydroxypropylcellulose) (HPC)",79 % of control
same,T/C,[1],88 % of control
OCC1OC(n2cnc3c2NC=NC[C@H]3O)CC1O (stereo partly specified),T/C,"dose: 0.63 mg/kg/injection, schedule: Q07DX002 (ip), vehicle: saline",70 % of control
same,T/C,"dose: 1.25 mg/kg/injection, schedule: Q07DX002 (ip), vehicle: saline",83 % of control
same,T/C,"dose: 2.0 mg/kg/injection, schedule: Q07DX002 (ip), vehicle: saline",68 % of control
same,T/C,"dose: 2.5 mg/kg/injection, schedule: Q07DX002 (ip), vehicle: saline",43 % of control
same,T/C,"dose: 5.0 mg/kg/injection, schedule: Q07DX002 (ip), vehicle: saline",90 % of control
same,T/C,"dose: 8.0 mg/kg/injection, schedule: Q07DX002 (ip), vehicle: saline",67 % of control
same,T/C,"dose: 10.0 mg/kg/injection, schedule: Q07DX002 (ip), vehicle: saline",45 % of control
same,T/C,"dose: 16.0 mg/kg/injection, schedule: Q07DX002 (ip), vehicle: saline",74 % of control
NNC(=O)c1ccncc1,T/C,"dose: 32.0 mg/kg/injection, schedule: Q07DX002 (ip), vehicle: saline",118 % of control
same,T/C,"dose: 36.0 mg/kg/injection, schedule: Q07DX002 (ip), vehicle: saline",77 % of control and 98 % of control
same,T/C,"dose: 64.0 mg/kg/injection, schedule: Q07DX002 (ip), vehicle: saline",104 % of control
same,T/C,"dose: 72.0 mg/kg/injection, schedule: Q07DX002 (ip), vehicle: saline",75 % of control and 95 % of control
same,T/C,"dose: 128.0 mg/kg/injection, schedule: Q07DX002 (ip), vehicle: saline",120 % of control
same,T/C,"dose: 144.0 mg/kg/injection, schedule: Q07DX002 (ip), vehicle: saline",120 % of control
CC(=O)OCc1cc(=O)n(C)c2c3c4c(cc12)c(C)cc(=O)n4CO3,T/C,"dose: 12.5 mg/kg/injection, schedule: Q07DX003 (ip), vehicle: Klucel (hydroxypropylcellulose) (HPC)",121 % of control and 106 % of control
same,T/C,[2],108 % of control
same,T/C,"dose: 50.0 mg/kg/injection, schedule: Q07DX003 (ip), vehicle: Klucel (hydroxypropylcellulose) (HPC)",83 % of control
same,T/C,[3],94 % of control
CCOC(OCC)C(=O)OCC(=O)[C@]1(O)Cc2c(O)c3c(c(O)c2[C@@H](OC2CC(N)C(O)C(C)O2)C1)C(=O)c1c(OC)cccc1C3=O (stereo partly specified),T/C,"dose: 0.5 mg/kg/injection, schedule: Q07DX002 (ip), vehicle: water",85 % of control
same,T/C,"dose: 2.0 mg/kg/injection, schedule: Q07DX002 (ip), vehicle: water",107 % of control
same,T/C,"dose: 4.0 mg/kg/injection, schedule: Q07DX002 (ip), vehicle: water",88 % of control
COc1ccc(-c2cc(=O)c3cccc(CC(=O)O)c3o2)cc1OC,T/C,[4],106 % of control
same,T/C,[5],117 % of control
same,T/C,[6],82 % of control
OC1CCCC2CCC[N-]C12.OC1CCCC2CCC[N-]C12.[Mn+2] (stereo unspecified),T/C,[1],76 % of control
same,T/C,[7],91 % of control
same,T/C,[5],63 % of control and 84 % of control
same,T/C,[6],86 % of control and 98 % of control
same,T/C,[8],69 % of control
Cn1cnc([N+](=O)[O-])c1Sc1ncn[nH]1,T/C,[9],78 % of control
same,T/C,"dose: 25.0 mg/kg/injection, schedule: Q07DX002 (ip), vehicle: suspension in saline",112 % of control
same,T/C,[10],73 % of control
same,T/C,"dose: 50.0 mg/kg/injection, schedule: Q07DX002 (ip), vehicle: suspension in saline",118 % of control
same,T/C,"dose: 100.0 mg/kg/injection, schedule: Q07DX002 (ip), vehicle: saline",79 % of control
same,T/C,"dose: 100.0 mg/kg/injection, schedule: Q07DX002 (ip), vehicle: suspension in saline",85 % of control
same,T/C,"dose: 200.0 mg/kg/injection, schedule: Q07DX002 (ip), vehicle: saline",52 % of control
same,T/C,[11],65 % of control
same,T/C,"dose: 400.0 mg/kg/injection, schedule: Q07DX002 (ip), vehicle: suspension in saline",107 % of control
same,T/C,"dose: 800.0 mg/kg/injection, schedule: Q07DX002 (ip), vehicle: saline",84 % of control
COC1=C(Br)[C@H](O)[C@](O)(CC#N)C=C1Br,T/C,"dose: 8.75 mg/kg/injection, schedule: Q07DX002 (ip), vehicle: Klucel (hydroxypropylcellulose) (HPC)",52 % of control
same,T/C,"dose: 17.5 mg/kg/injection, schedule: Q07DX002 (ip), vehicle: Klucel (hydroxypropylcellulose) (HPC)",80 % of control
same,T/C,"dose: 35.0 mg/kg/injection, schedule: Q07DX002 (ip), vehicle: Klucel (hydroxypropylcellulose) (HPC)",49 % of control
same,T/C,"dose: 70.0 mg/kg/injection, schedule: Q07DX002 (ip), vehicle: Klucel (hydroxypropylcellulose) (HPC)",105 % of control
same,T/C,"dose: 140.0 mg/kg/injection, schedule: Q07DX002 (ip), vehicle: Klucel (hydroxypropylcellulose) (HPC)",70 % of control
same,T/C,"dose: 280.0 mg/kg/injection, schedule: Q07DX002 (ip), vehicle: Klucel (hydroxypropylcellulose) (HPC)",56 % of control
O=C(O[Si](Cc1ccccc1)(Cc1ccccc1)Cc1ccccc1)N(CCCl)CCCl,T/C,[12],77 % of control and 102 % of control
same,T/C,"dose: 100.0 mg/kg/injection, schedule: Q07DX002 (ip), vehicle: saline with Tween-80",194 % of control
same,T/C,"dose: 200.0 mg/kg/injection, schedule: Q07DX002 (ip), vehicle: saline with Tween-80",112 % of control
CC1(C)OC(=O)N(CO)C1=O,T/C,"dose: 12.5 mg/kg/injection, schedule: Q07DX002 (ip), vehicle: saline",162 % of control
same,T/C,[9],94 % of control
same,T/C,[10],120 % of control and 123 % of control
same,T/C,[11],257 % of control
COC(C(=O)C(O)C(C)O)C1CC2C=C3C=C(OC4CC(OC5CC(O)C(OC)C(C)O5)C(OC(C)=O)C(C)O4)C(C)C(=O)C3=C(O)C2=C(O)C1OC1CC(OC2CC(OC3CC(C)(O)C(O)C(C)O3)C(O)C(C)O2)C(O)C(C)O1 (stereo unspecified),T/C,"dose: 1.0 mg/kg/injection, schedule: Q07DX002 (ip), vehicle: saline with Tween-80",121 % of control
same,T/C,"dose: 2.0 mg/kg/injection, schedule: Q07DX002 (ip), vehicle: saline with Tween-80",150 % of control
same,T/C,"dose: 4.0 mg/kg/injection, schedule: Q07DX002 (ip), vehicle: saline with Tween-80",112 % of control
same,T/C,"dose: 8.0 mg/kg/injection, schedule: Q07DX002 (ip), vehicle: saline with Tween-80",114 % of control
same,T/C,"dose: 16.0 mg/kg/injection, schedule: Q07DX002 (ip), vehicle: saline with Tween-80",111 % of control
C#CCNC1=C(C)C(=O)C2=C(C1=O)[C@H](COC(N)=O)[C@]1(OC)[C@@H]3N[C@@H]3CN21,T/C,"dose: 1.5 mg/kg/injection, schedule: Q07DX002 (ip), vehicle: distilled water + Tween-80",49 % of control
same,T/C,"dose: 3.0 mg/kg/injection, schedule: Q07DX002 (ip), vehicle: distilled water + Tween-80",78 % of control
same,T/C,"dose: 6.0 mg/kg/injection, schedule: Q07DX002 (ip), vehicle: distilled water + Tween-80",20 % of control
CCOC(=O)C(N)CSC(=O)NC (stereo unspecified),T/C,"dose: 125.0 mg/kg/injection, schedule: Q07DX002 (ip), vehicle: saline",83 % of control
same,T/C,"dose: 250.0 mg/kg/injection, schedule: Q07DX002 (ip), vehicle: saline",110 % of control
same,T/C,"dose: 500.0 mg/kg/injection, schedule: Q07DX002 (ip), vehicle: saline",81 % of control
COCCCNC1=C(C#N)C(=O)NC(c2cccc([N+](=O)[O-])c2)S1 (stereo unspecified),T/C,"dose: 12.5 mg/kg/injection, schedule: Q07DX002 (ip), vehicle: saline with Tween-80",97 % of control
same,T/C,[12],95 % of control
same,T/C,"dose: 50.0 mg/kg/injection, schedule: Q07DX002 (ip), vehicle: saline with Tween-80",108 % of control
COc1cc(C(=O)c2cc3c(cc2C)OCO3)cc(OC)c1OC,T/C,[1],77 % of control
same,T/C,[4],75 % of control and 84 % of control
same,T/C,[7],112 % of control and 95 % of control
same,T/C,[6],79 % of control and 102 % of control
O=[N+]([O-])/C=C\c1ccc2c(c1)OCO2,T/C,[1],364 % of control
same,T/C,[4],364 % of control
same,T/C,[2],64 % of control and 71 % of control
same,T/C,[7],185 % of control
same,T/C,[5],93 % of control
same,T/C,"dose: 100.0 mg/kg/injection, schedule: Q07DX003 (ip), vehicle: Klucel (hydroxypropylcellulose) (HPC)",88 % of control and 92 % of control
same,T/C,[6],77 % of control
same,T/C,[3],56 % of control
same,T/C,[8],102 % of control
